# Measurements: patent US20240059703A1 (AMGEN INC., priority 2021, published 2024)
# What was measured:
# [1] = test system: phosphorylation of extracellular signal-regulated kinase (ERK); conditions: preclinical studies; cited from earlier work
# KRAS G12C [2] = target: T1, KRAS G12C (Homo sapiens (Human), UniProt P01116, C118A/G12C); assay: 20 h coupled exchange assay; assay type: biochemical; conditions: value marked ** in the Avg 2 h column; footnote not given, taken as 20 h pre-incubation
# Protocol: (§1) The term “2 h coupled exchange assay” or “20 h coupled exchange assay” as used herein refers to the assay described in the Section entitled “BIOLOGICAL EVALUATION.”
# [3] = test system: MIA PaCa-2 (human pancreatic carcinoma) cells; assay: Cell Viability Assay (CellTiter-Glo), MIA PaCa-2; assay type: cell-based; conditions: Homo sapiens, MIA PaCa-2, 72 h
# Protocol: Serially-diluted compound or DMSO was added to the cells, and plates were incubated at 37° C., 5% CO2 for 72 h. Cell viability was measured using a CellTiter-Glo® Luminescent Cell Viability Assay kit (Promega) according to the manufacturer's protocol. The luminescence signal of treated samples was normalized to DMSO control, and data were analyzed using a 4-parameter logistic model to calculate IC50 values.
# [4] = test system: A549 (human lung carcinoma) cells; assay: Cell Viability Assay (CellTiter-Glo), A549; assay type: cell-based; conditions: Homo sapiens, A549, 72 h
# Summary of the method: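 RPMI 1640/10% FBS; seed 1.67E+04 cells/mL, o/n 37° C., 5% CO2; serial-dilution cmpd 72 h; CellTiter-Glo luminescence vs DMSO; 4-parameter logistic fit → IC50.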
# KRAS G12C [5] = target: T1, KRAS G12C; assay: 2 h coupled exchange assay; assay type: biochemical; conditions: Avg 2 h Coupled exchange IC50, 2 h compound pre-incubation
# Protocol: as §1
# [6] = SOS-mediated nucleotide exchange
# T1 sequence (P01116 other isoform, or with tags, fused parts or gaps G12C/C118A): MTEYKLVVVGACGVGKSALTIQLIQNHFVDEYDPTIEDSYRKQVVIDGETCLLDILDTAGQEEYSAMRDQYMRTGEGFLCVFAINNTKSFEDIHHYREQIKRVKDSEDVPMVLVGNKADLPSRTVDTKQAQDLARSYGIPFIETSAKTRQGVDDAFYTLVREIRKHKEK
SMILES,inhibition of phosphorylation of extracellular signal-regulated kinase (ERK) [1],IC50 (KRAS G12C [2]),IC50 [3],IC50 [4],IC50 (KRAS G12C [5]),IC50 (KRAS G12C [5]; [6])
C=CC(=O)N1CCN(c2nc(=O)n(-c3c(C)ccnc3C(C)C)c3nc(-c4c(O)cccc4F)c(F)cc23)[C@@H](C)C1 [AMG 510],inhibited nearly all detectable phosphorylation,,,,,
"C=CC(=O)N1CC2(CCN(c3nc(-c4c(C)ccc5[nH]ncc45)c4ncn(C)c4n3)C2)C1 [Example 1-20, 1-(6-(9-methyl-6-(5-methyl-1H-indazol-4-yl)-9H-purin-2-yl)-2,6-diazaspiro[3.4]octan-2-yl)-2-propen-1-one]",,4650 nM,> 5000 nM,> 5000 nM,,
"C=CC(=O)N1CC2(CCN(c3cc(-c4c(C)ccc5[nH]ncc45)c4occ(C)c4n3)C2)C1 [Example 3, 1-(6-(3-Methyl-7-(5-methyl-1H-indazol-4-yl)furo[3,2-b]pyridin-5-yl)-2,6-diazaspiro[3.4]octan-2-yl)prop-2-en-1-one]",,1380 nM,,,,
"C=CC(=O)N1CC2(CCN(c3nc4cc(-c5scnc5C)ccc4c(-c4ccccc4O)c3C#N)C2)C1 [Example 20-20, 4-(2-hydroxyphenyl)-7-(4-methyl-1,3-thiazol-5-yl)-2-(2-(2-propenoyl)-2,6-diazaspiro[3.4]octan-6-yl)-3-quinolinecarbonitrile]",,,1750 nM,6850 nM,162 nM,
"C=CC(=O)N1CC2(CCN(c3nc4c(c(-c5cc(OC)ccc5F)c3C#N)CCC(c3scnc3C)=C4)C2)C1 [Example 23-38, 4-(2-fluoro-5-methoxyphenyl)-7-(4-methyl-1,3-thiazol-5-yl)-2-(2-(2-propenoyl)-2,6-diazaspiro[3.4]octan-6-yl)-5,6-dihydro-3-quinolinecarbonitrile]",,,1540 nM,8010 nM,135 nM,
"C=CC(=O)N1CC2(CCN(c3nc4c(c(-c5c(C)ccc6[nH]ncc56)c3C)CCN(C3COC3)C4)C2)C1 [Example 18-14, 1-(6-(3-methyl-4-(5-methyl-1H-indazol-4-yl)-7-(3-oxetanyl)-5,6,7,8-tetrahydro-1,7-naphthyridin-2-yl)-2,6-diazaspiro[3.4]octan-2-yl)-2-propen-1-one]",,,167 nM,> 25000 nM,376 nM,
"C=CC(=O)N1CC2(CCN(c3nc4cc(-c5scnc5C)ccc4c(-c4ccccc4OC)c3C#N)C2)C1 [Example 20-17, 4-(2-methoxyphenyl)-7-(4-methyl-1,3-thiazol-5-yl)-2-(2-(2-propenoyl)-2,6-diazaspiro[3.4]octan-6-yl)-3-quinolinecarbonitrile]",,,1820 nM,7580 nM,431 nM,
"C=CC(=O)N1CC2(CCN(c3nc4c(c(-c5c(C)ccc6[nH]ncc56)c3C#N)COC(C)(C)C4)C2)C1 [Example 13-95, 2-(2-acryloyl-2,6-diazaspiro[3.4]octan-6-yl)-7,7-dimethyl-4-(5-methyl-1H-indazol-4-yl)-7,8-dihydro-5H-pyrano[4,3-b]pyridine-3-carbonitrile]",,,92 nM,> 5000 nM,,34 nM
"C=CC(=O)N1CC2(CCN(c3nc4cc(-c5scnc5C)cnc4c(-c4ccccc4F)c3C#N)C2)C1 [Example 20-15, 4-(2-fluorophenyl)-7-(4-methyl-1,3-thiazol-5-yl)-2-(2-(2-propenoyl)-2,6-diazaspiro[3.4]octan-6-yl)-1,5-naphthyridine-3-carbonitrile]",,,649 nM,> 5000 nM,116 nM,
"C=CC(=O)N1CC2(CCN(c3nc4c(c(-c5c(C)cc(F)c6[nH]ncc56)c3C#N)CCC(C)(C)C4)C2)C1 [Example 13-146, 4-(7-fluoro-5-methyl-1H-indazol-4-yl)-7,7-dimethyl-2-(2-(2-propenoyl)-2,6-diazaspiro[3.4]octan-6-yl)-5,6,7,8-tetrahydro-3-quinolinecarbonitrile]",,,71 nM,> 5000 nM,,29 nM
